Toxic doses and inconclusive results are not listed. Cut-off read from the data, not from the text of the source: active = T/C of 150% or more; inactive = T/C below 125%.
Test system: L1210 leukemia ip in BDF1 mice, survival T/C
Assay: NCI In Vivo Anticancer Drug Screen. Data for tumor model L1210 Leukemia (intraperitoneal) in B6D2F1 (BDF1) mice
Details: endpoint: mean survival time, higher = longer survival
Outline: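 Each compound was tested against a transplantable tumor grown in mice. The endpoint was survival, with treated animals benchmarked against vehicle controls as a simple ratio.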

[1] = dose: 100.0 mg/kg/injection, schedule: Q04DX003 (ip), vehicle: Klucel (hydroxypropylcellulose) (HPC)
[2] = dose: 200.0 mg/kg/injection, schedule: Q04DX003 (ip), vehicle: Klucel (hydroxypropylcellulose) (HPC)
[3] = dose: 400.0 mg/kg/injection, schedule: Q04DX003 (ip), vehicle: Klucel (hydroxypropylcellulose) (HPC)
[4] = dose: 100.0 mg/kg/injection, schedule: Q01DX001 (ip), vehicle: saline
[5] = dose: 200.0 mg/kg/injection, schedule: Q01DX001 (ip), vehicle: saline
[6] = dose: 400.0 mg/kg/injection, schedule: Q01DX001 (ip), vehicle: saline
[7] = dose: 100.0 mg/kg/injection, schedule: Q04DX003 (ip), vehicle: saline
[8] = dose: 200.0 mg/kg/injection, schedule: Q04DX003 (ip), vehicle: saline
[9] = dose: 400.0 mg/kg/injection, schedule: Q04DX003 (ip), vehicle: saline
[10] = dose: 50.0 mg/kg/injection, schedule: Q01DX009 (ip), vehicle: saline
[11] = dose: 100.0 mg/kg/injection, schedule: Q01DX009 (ip), vehicle: saline
[12] = dose: 100.0 mg/kg/injection, schedule: Q04DX002 (ip), vehicle: saline with Tween-80
[13] = dose: 200.0 mg/kg/injection, schedule: Q04DX002 (ip), vehicle: saline with Tween-80
[14] = dose: 100.0 mg/kg/injection, schedule: Q01DX009 (ip), vehicle: Klucel (hydroxypropylcellulose) (HPC)
[15] = dose: 200.0 mg/kg/injection, schedule: Q01DX009 (ip), vehicle: Klucel (hydroxypropylcellulose) (HPC)
[16] = dose: 400.0 mg/kg/injection, schedule: Q01DX009 (ip), vehicle: Klucel (hydroxypropylcellulose) (HPC)

Measured: T/C

Fc1c(Cl)c(Cl)c(Cl)c(Cl)c1Cl
inactive: dose: 100.0 mg/kg/injection, schedule: Q01DX009 (ip), vehicle: saline sonified 110 % of control | [1] 96 % of control | dose: 200.0 mg/kg/injection, schedule: Q01DX009 (ip), vehicle: saline sonified 100 % of control | [2] 97 % of control | dose: 400.0 mg/kg/injection, schedule: Q01DX009 (ip), vehicle: saline sonified 95 % of control | [3] 96 % of control

N#C/C(=C/c1ccncc1)C(N)=O
inactive: dose: 100.0 mg/kg/injection, schedule: Q04DX003 (ip), vehicle: saline with Tween-80 98 % of control | dose: 200.0 mg/kg/injection, schedule: Q04DX003 (ip), vehicle: saline with Tween-80 94 % of control | dose: 400.0 mg/kg/injection, schedule: Q04DX003 (ip), vehicle: saline with Tween-80 99 % of control

O=C(O)C1C2C=CCC1CC2 (centres undefined)
inactive: dose: 100.0 mg/kg/injection, schedule: Q04DX003 (ip), vehicle: alcohol 100 % of control | dose: 200.0 mg/kg/injection, schedule: Q04DX003 (ip), vehicle: alcohol 103 % of control | dose: 400.0 mg/kg/injection, schedule: Q04DX003 (ip), vehicle: alcohol 100 % of control

O=C1C(=O)c2ccc(Br)cc2C(O)=C1C(c1ccccc1)c1ccccc1
inactive: [4] 100 % of control | [5] 106 % of control | [6] 96 % of control

Cc1ccc(S(=O)(=O)N(CCCc2c(C)nc(N)nc2Nc2ccccc2)c2ccccc2)cc1
inactive: dose: 25.0 mg/kg/injection, schedule: Q01DX001 (ip), vehicle: saline with Tween-80 108 % of control | dose: 50.0 mg/kg/injection, schedule: Q01DX001 (ip), vehicle: saline with Tween-80 92 % of control | dose: 100.0 mg/kg/injection, schedule: Q01DX001 (ip), vehicle: saline with Tween-80 93 % of control

CC(C)COC(=O)C1(C)OC1c1ccccc1 (centres undefined)
inactive: dose: 100.0 mg/kg/injection, schedule: Q04DX002 (ip), vehicle: saline 115 % of control | dose: 200.0 mg/kg/injection, schedule: Q04DX002 (ip), vehicle: saline 104 % of control | dose: 400.0 mg/kg/injection, schedule: Q04DX002 (ip), vehicle: saline 97 % of control

O=C1CCCNc2ccccc21
inactive: dose: 100.0 mg/kg/injection, schedule: Q01DX009 (ip), vehicle: saline with Tween-80 98 % of control | [1] 93 % of control | dose: 200.0 mg/kg/injection, schedule: Q01DX009 (ip), vehicle: saline with Tween-80 110 % of control | [2] 106 % of control | dose: 400.0 mg/kg/injection, schedule: Q01DX009 (ip), vehicle: saline with Tween-80 93 % of control | [3] 98 % of control

CCOP(=O)(OCC)c1cccc(N)c1
inactive: [7] 100 % of control | [8] 87 % of control | [9] 100 % of control

CCOC(=O)NCC(CCN(C)C)(c1cccc2ccccc12)C(C)CC (centres undefined)
inactive: dose: 25.0 mg/kg/injection, schedule: Q01DX009 (ip), vehicle: Klucel (hydroxypropylcellulose) (HPC) 94 % of control | dose: 50.0 mg/kg/injection, schedule: Q01DX009 (ip), vehicle: Klucel (hydroxypropylcellulose) (HPC) 94 % of control | dose: 50.0 mg/kg/injection, schedule: Q04DX003 (ip), vehicle: Klucel (hydroxypropylcellulose) (HPC) 105 % of control | [1] 103 % of control

O=C(O)C(Br)C(Br)c1ccc([N+](=O)[O-])cc1 (centres undefined)
inactive: dose: 100.0 mg/kg/injection, schedule: Q04DX002 (ip), vehicle: gum acacia 103 % of control | dose: 200.0 mg/kg/injection, schedule: Q04DX002 (ip), vehicle: gum acacia 107 % of control | dose: 400.0 mg/kg/injection, schedule: Q04DX002 (ip), vehicle: gum acacia 90 % of control

CC(C)NNC(=O)C(C)O (centres undefined)
inactive: dose: 25.0 mg/kg/injection, schedule: Q01DX009 (ip), vehicle: saline 93 % of control | dose: 25.0 mg/kg/injection, schedule: Q04DX003 (ip), vehicle: saline 109 % of control | [10] 90 % of control | dose: 50.0 mg/kg/injection, schedule: Q04DX003 (ip), vehicle: saline 96 % of control | [11] 97 % of control | [7] 93 % of control | dose: 200.0 mg/kg/injection, schedule: Q01DX009 (ip), vehicle: saline 87 % of control | [8] 112 % of control | dose: 400.0 mg/kg/injection, schedule: Q01DX009 (ip), vehicle: saline 95 % of control | [9] 96 % of control

C[AsH](C)CC[AsH](C)C.C[AsH](C)CC[AsH](C)C.C[AsH](C)CC[AsH](C)C.[Ni]
inactive: dose: 25.0 mg/kg/injection, schedule: Q04DX002 (ip), vehicle: saline 103 % of control | dose: 50.0 mg/kg/injection, schedule: Q04DX002 (ip), vehicle: saline 109 % of control

Cc1c(C)c2c(C(=O)O)c3ccccc3nc2c2ccccc12
inactive: dose: 50.0 mg/kg/injection, schedule: Q01DX001 (ip), vehicle: alcohol 96 % of control | dose: 100.0 mg/kg/injection, schedule: Q01DX001 (ip), vehicle: alcohol 102 % of control | dose: 200.0 mg/kg/injection, schedule: Q01DX001 (ip), vehicle: alcohol 92 % of control | dose: 400.0 mg/kg/injection, schedule: Q01DX001 (ip), vehicle: alcohol 105 % of control

CCCN(CCC)P(c1ccccc1)N(CCC)CCC
inactive: [12] 93 % of control | [13] 101 % of control

COc1cc(CCN)cc(OC)c1OC
inactive: dose: 75.0 mg/kg/injection, schedule: Q01DX001 (ip), vehicle: saline 104 % of control | dose: 150.0 mg/kg/injection, schedule: Q01DX001 (ip), vehicle: saline 103 % of control | dose: 300.0 mg/kg/injection, schedule: Q01DX001 (ip), vehicle: saline 104 % of control

CNNC(=O)NC
inactive: [10] 109 % of control | [11] 94 % of control

O=C(OCC1OCOC(COC(=O)c2ccccc2)C1O)c1ccccc1 (centres undefined)
inactive: dose: 50.0 mg/kg/injection, schedule: Q04DX002 (ip), vehicle: saline with Tween-80 118 % of control | [12] 112 % of control | [13] 102 % of control

CCCCOC(=O)c1ccc(NC(=O)Nc2ccc(F)c([N+](=O)[O-])c2)cc1
inactive: [14] 98 % of control | [15] 95 % of control | [16] 101 % of control

NOCC(=O)O
inactive: dose: 5.0 mg/kg/injection, schedule: Q01DX Z (ip), vehicle: saline 112 % of control | dose: 8.0 mg/kg/injection, schedule: Q01DX Z (ip), vehicle: saline 97 % of control | dose: 12.0 mg/kg/injection, schedule: Q01DX Z (ip), vehicle: saline 103 % of control | dose: 12.5 mg/kg/injection, schedule: Q01DX001 (ip), vehicle: carboxymethylcellulose (CMC) 106 % of control | dose: 18.0 mg/kg/injection, schedule: Q01DX Z (ip), vehicle: saline 103 % of control | dose: 25.0 mg/kg/injection, schedule: Q01DX001 (ip), vehicle: carboxymethylcellulose (CMC) 97 % of control | dose: 50.0 mg/kg/injection, schedule: Q01DX001 (ip), vehicle: carboxymethylcellulose (CMC) 95 % of control

CC(C)C(=O)Nc1cccnc1
inactive: dose: 10.0 mg/kg/injection, schedule: Q01DX001 (ip), vehicle: saline 100 % of control | dose: 20.0 mg/kg/injection, schedule: Q01DX001 (ip), vehicle: saline 103 % of control | dose: 40.0 mg/kg/injection, schedule: Q01DX001 (ip), vehicle: saline 94 % of control

CCOC(=O)/C(C#N)=C(/C)C(C)C(=O)OCC (centres undefined)
inactive: [4] 100 % of control | [11] 102 % of control | [5] 100 % of control | [6] 96 % of control

CCOC(=O)C(Cc1ccccc1)NC(=O)N(CCCl)CCCl (centres undefined)
inactive: dose: 62.5 mg/kg/injection, schedule: Q01DX Z (ip), vehicle: water 97 % of control | dose: 125.0 mg/kg/injection, schedule: Q01DX Z (ip), vehicle: water 95 % of control | dose: 250.0 mg/kg/injection, schedule: Q01DX Z (ip), vehicle: water 106 % of control

COc1ccccc1NC(=O)Nc1ccccc1C
inactive: [14] 96 % of control | [1] 94 % of control | [15] 89 % of control | [2] 100 % of control | [16] 94 % of control | [3] 90 % of control
